# Measurements taken from patent US20220409617A1, “Drug Formulations and Methods of Treatment for Metabolic Disorders” (The Regents of the University of California, priority 2019, published 2022).
# B1: leptin: recombinant mouse leptin (498-OB, R&D Systems) (protein, UniProt P41160 22-167, looked up)
# Leptin: VPIQKVQDDTKTLIKTIVTRINDISHTQSVSAKQRVTGLDFIPGLHPILSLSKMDQTLAVYQQVLTSLPSQNVLQIANDLENLRDLLHLLAFSKSCSLPQTSGLQKPESLDGVLEASLYSTEVVALSRLQGSLQDILQQLDVSPEC
# What was measured:
# 3T3-L1 adipocytes = test: Insulin-stimulated 2-deoxyglucose uptake; type: cell-based, mouse; settings: 3 h, 893 10 μM, MK-2206 2 μM
# Method: (§1) 3T3-L1 cells were maintained in DMEM with 10% FBS and 1% penicillin-streptomycin until induced to differentiate. 3T3-L1 pre-adipocytes were differentiated as described in (M. P. Valley, et al., Anal. Biochem. 505: 43-50, 2016, the disclosure of which is incorporated herein by reference) with slight modifications. Briefly, pre-adipocytes were grown to confluence. After 2 d, cells were induced with maintenance media containing 500 μM IBMX (15879, Sigma-Aldrich, St. Louis, Mo.), 1 μM dexamethasone (D4902, Sigma-Aldrich), 5 μg/mL bovine insulin (10516, Sigma-Aldrich), and 5 μM troglitazone (50-115-0786, ApexBio). Media was changed every 2-3 d for 7 d. On day 7 post-induction, media was changed to maintenance media+5 μg/mL bovine insulin. On day 9 post-induction, media was changed to maintenance media. Mature adipocytes were used 12-14 d post-induction for all experiments. LSL-KrasG12D mouse embryonic fibroblasts (MEFs) with and without Cre-mediated deletion of the STOP cassette were obtained from David Tuveson (Cold Spring Harbor Laboratory, Cold Spring Harbor N.Y., USA) in 2000. p53^flox/flox MEFs were derived in house (2015) from C57BL/6 mice using standard techniques and immortalized by transient expression of Cre recombinase and deletion of p53. MEFs were cultured and maintained in DMEM with 10% FBS and 1% penicillin-streptomycin. […]
# DRP1 = DRP1 recruitment to mitochondria (DRP1/citrate synthase co-localization) and DRP1 western blot; type: cell-based, mouse; settings: MEFs; 893 5 μM or YM201636 800 nM 3 h, then palmitate 250 μM 3 h
# Method: Mature adipocytes were serum starved for 16 h then treated with vehicle, ceramide (50 or 100 μM), or sphingolipid-like compound 893 (5 or 10 μM) in serum-free media supplemented with 0.2% fatty-acid free BSA for 3 h after which 100 nM insulin was added for 15 min. To determine total DRP1 protein levels, 100,000 MEFs were seeded into a 6-well plate for 16 h, pre-treated for 3 h with vehicle or sphingolipid-like compound 893 (5 μM) followed by a 3 h incubation in 1% BSA+ethanol or BSA-palmitate (250 μM). Cells were washed once with cold PBS, then lysed in cold RIPA buffer (140 mM NaCl, 10 mM Tris pH 8.0, 1% Triton X-100, 0.1% SDS, 1% sodium deoxycholate) with cOmplete™ protease inhibitor (Cat no. 11697498001, Millipore Sigma, St. Louis, Mo.) and phosSTOP™ phosphatase inhibitor (Cat no. 4906837001, Millipore Sigma). Samples were incubated on ice for 10 min and insoluble material removed by centrifugation (9000×g for 10 min at 4° C.). Protein content was quantified in the supernatant using the Pierce™ BCA Protein Assay Kit (Thermo-Fisher Scientific, Waltham, Mass.). Equal amounts of protein were prepared in NuPAGE® LDS Sample Buffer (NP0007, Invitrogen) containing 50 mM DTT, and heated at 70° C. for 10 min. Proteins were resolved on a NuPAGE® 4-12% Bis-Tris protein gel (NP0336, Invitrogen, Carlsbad, Calif.) and subsequently transferred to a nitrocellulose membrane. Membranes were blocked in 5% BSA in TBST for 1 h, then probed with primary antibodies overnight at 4° C. […] Band intensity was quantified using Image Studio Lite V5.2 software (Li-COR).
# MEFs were washed twice with PBS and fixed with 4% paraformaldehyde for 10 min at RT. […] NADH/NADPH autofluorescence was detected with 740 nm excitation and 450±50 nm detectors using a Mai Tai two-photon laser. Fluorescence microscopy was performed on a Zeiss LSM 780 confocal using a 63× oil objective with a […] numerical aperture (NA) or using a Nikon TE2000-S inverted epifluorescence microscope with a 100× oil objective (1.3 NA) and a Photometrics CoolSNAP ES2 monochrome CCD camera. […]
# AKT = test: Insulin-stimulated AKT activation, western blot; type: cell-based, mouse; settings: 3T3-L1 adipocytes; 3 h pre-treatment, C2-ceramide 50 or 100 μM, 893 5 or 10 μM; insulin 100 nM 15 min
# Method: as §1, with “experiments.” for “experiments. LSL-KrasG12D mouse embryonic fibroblasts (MEFs) with and without Cre-mediated deletion of the STOP cassette were obtained from David Tuveson (Cold Spring Harbor Laboratory, Cold Spring Harbor N.Y., USA) in 2000. p53^flox/flox MEFs were derived in house (2015) from C57BL/6 mice using standard techniques and immortalized by transient expression of Cre recombinase and deletion of p53. MEFs were cultured and maintained in DMEM with 10% FBS and 1% penicillin-streptomycin.”
# Mature adipocytes were serum starved for 16 h then treated with vehicle, ceramide (50 or 100 μM), or sphingolipid-like compound 893 (5 or 10 μM) in serum-free media supplemented with 0.2% fatty-acid free BSA for 3 h after which 100 nM insulin was added for 15 min. […] Protein content was quantified in the supernatant using the Pierce™ BCA Protein Assay Kit (Thermo-Fisher Scientific, Waltham, Mass.). […]
# [1] = Home-cage feeding study with suboptimal leptin (leptin sensitization); type: in vivo, mouse; settings: lean chow-fed 18 week old mice; leptin 2 mg/kg i.p. or 893 120 mg/kg by gavage
# Text: Leptin is secreted by adipocytes in proportion to their triglyceride content, signaling to the CNS when peripheral energy stores are full and food consumption should decrease. In HFD-fed mice, chronic increases in adiposity lead to elevations in circulating leptin with no accompanying decrease in food intake, a state that has been termed leptin-resistant. Reducing leptin levels in the blood restores leptin signaling in the hypothalamus (S. Zhao, et al., 2019, cited supra). Thus, the sphingolipid-like compound 893 should function as a leptin-sensitizing agent. To test this model, 18 week old lean, male C57BL/6J mice were treated intraperitoneally with a suboptimal dose of recombinant leptin at ZT8.5 and food intake and body weight measured over the next 18 h. […] In summary, the reduction in food intake in sphingolipid-like compound 893-treated mice is consistent with the reversal of mitochondrial fragmentation in the hypothalamus and likely due in part to the re-sensitization of anorexigenic POMG neurons to leptin when plasma leptin levels are decreased.
# Mice were singly housed and allowed to acclimate for 72 h before food intake was monitored. Food consumption was determined by monitoring the weight of food in the hopper. Initial food and body weight measurements were taken at ZT9 and final measurements were taken 16 h later to capture the active period where most consumption occurred. Home cage feeding studies were performed with C57BL/6J mice maintained on a HFD for 24 weeks (33 weeks of age), or ob/ob mice at 8 weeks of age. Mice received vehicle or 120 mg/kg sphingolipid-like compound 893 by gavage at ZT8.5. For experiments involving leptin, 18 week old, SD fed (16% kcal from fat, 2020×, Envigo) C57BL/6J mice received vehicle or 120 mg/kg sphingolipid-like compound 893 by gavage at ZT8.5. […] One ob/ob mouse died during Echo MRI for unknown reasons after 6 d of treatment with sphingolipid-like compound 893; data from this mouse was analyzed prior to death.
molecule,measurement,setting,value
"NC1(c2ccc(-c3nc4ccn5c(=O)[nH]nc5c4cc3-c3ccccc3)cc2)CCC1 [MK-2206, reference compound]",Insulin-stimulated glucose uptake,3T3-L1 adipocytes,impeded insulin-stimulated glucose uptake in adipocytes
"Nc1ccc(C(=O)Nc2cccc(-c3nc(N4CCOCC4)c4oc5ncccc5c4n3)c2)cn1 [YM201636, reference compound]",DRP1 recruitment to mitochondria in response to palmitate,DRP1,prevented DRP1 recruitment
"CCCCCCCCCCCCC/C=C/[C@@H](O)[C@H](CO)NC(C)=O [ceramide, C2-ceramide, reference compound]",Insulin-stimulated AKT activation,AKT,interfered with insulin-stimulated AKT activation
B1,"Food intake and body weight over 18 h, single agent",[1],not sufficient to decrease food intake or body weight
